Laboratory results taken from patent US20240317721A1, “PYRAZOLYL DERIVATIVES AS INHIBITORS OF THE KRAS MUTANT PROTEIN” (NOVARTIS AG, priority 2021, published 2024).

Biological target: KRasG12C (M1-K169, biotinylated on the N-terminus) (Homo sapiens (Human), UniProt P01116, G12C)
Experiment: Covalent competition assay: scintillation proximity assay (SPA) quantifying covalent modification of KRASG12C
Assay type: binding
Details: competition with radiolabeled covalent probe (Compound B/Compound A), 2 hours incubation, 10 nM KRasG12C
How it was run: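 Scintillation proximity readout after streptavidin bead capture (30 min) of biotinylated KRasG12C(M1-K169):GDP, 10 nM final, which was covalently labelled over 2 h by 25 nM radio-probe plus 475 nM cold probe unless blocked by compound.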

Row | IC50 [nM] | Compound
1 | 971 | C=CC(=O)N1CC2(CC(n3nc(N4CCN(C5CCOCC5)CC4(C)C)c(-c4c(Cl)c(Cl)cc5[nH]ncc45)c3C)C2)C1 (single isomer, unassigned) [Example 140a, 1-(6-(4-(5,6-dichloro-1H-indazol-4-yl)-3-(2,2-dimethyl-4-(tetrahydro-2H-pyran-4-yl)piperazin-1-yl)-5-methyl-1H-pyrazol-1-yl)-2-azaspiro[3.3]heptan-2-yl)prop-2-en-1-one]
2 | 8 | C=CC(=O)N1CC2(CC(n3nc(N4CC[C@@H](CN5CC6(C5)CN(C)C(=O)O6)CC4(C)C)c(-c4c(Cl)c(Cl)cc5[nH]ncc45)c3C)C2)C1 (single isomer, unassigned) [Example 284b]
3 | 33 | C=CC(=O)N1CC2(CC(n3nc(N4CC[C@@H](CN5CCN6C(=O)N(C)CC6C5)CC4(C)C)c(-c4c(Cl)c(Cl)cc5[nH]ncc45)c3C)C2)C1 (single isomer, unassigned) [Example 264b]
4 | 17 | C=CC(=O)N1CC2(CC(n3nc(N4CCN(C(C)=O)CC45CCC5)c(-c4c(Cl)c(C)cc5[nH]ncc45)c3C)C2)C1 (single isomer, unassigned) [Example 21b, 1-(6-(3-(8-acetyl-5,8-diazaspiro[3.5]nonan-5-yl)-4-(5-chloro-6-methyl-1H-indazol-4-yl)-5-methyl-1H-pyrazol-1-yl)-2-azaspiro[3.3]heptan-2-yl)prop-2-en-1-one]
5 | 1500 | C=CC(=O)N1CC2(CC(n3nc(N4CCN(CC5COCCOC5)C[C@]4(C)CC)c(-c4c(Cl)c(C)cc5[nH]ncc45)c3C)C2)C1 (single isomer, unassigned) [Example 186a]
6 | > 5000 | C=CC(=O)N1CC2(CC(n3nc(N4CCN(CCO)CC45CCC5)c(-c4c(Cl)c(C)cc5[nH]ncc45)c3C)C2)C1 (single isomer, unassigned) [Example 162a, 1-(6-(4-(5-chloro-6-methyl-1H-indazol-4-yl)-3-(8-(2-hydroxyethyl)-5,8-diazaspiro[3.5]nonan-5-yl)-5-methyl-1H-pyrazol-1-yl)-2-azaspiro[3.3]heptan-2-yl)prop-2-en-1-one]
7 | > 5000 | C=CC(=O)N1CC2(CC(n3nc(N4CC[C@@H](CN5CC6(C5)CS(=O)(=O)C6)CC4(C)C)c(-c4c(Cl)c(Cl)cc5[nH]ncc45)c3C)C2)C1 (single isomer, unassigned) [Example 248a]
8 | > 5000 | C=CC(=O)N1CC2(CC(n3nc(N4CCN(C(C)=O)C[C@@H]4C(C)C)c(-c4c(Cl)c(C)cc5[nH]ncc45)c3C)C2)C1 (single isomer, unassigned) [Example 95a]
9 | 10 | C=CC(=O)N1CC2(CC(n3nc(N4CC[C@@H](CN5CC6OCCN(C)C6C5)CC4(C)C)c(-c4c(Cl)c(Cl)cc5[nH]ncc45)c3C)C2)C1 (single isomer, unassigned) [Example 259b, 1-(6-(4-(5,6-dichloro-1H-indazol-4-yl)-3-((R)-2,2-dimethyl-4-(((4aR*,7aS*)-4-methylhexahydropyrrolo[3,4-b][1,4]oxazin-6(2H)-yl)methyl)piperidin-1-yl)-5-methyl-1H-pyrazol-1-yl)-2-azaspiro[3.3]heptan-2-yl)prop-2-en-1-one]
10 | 18000 | C=CC(=O)N1CC2(CC(n3nc(N4CCc5ncncc5C4)c(-c4c(Cl)c(C)cc5[nH]ncc45)c3C)C2)C1 (single isomer, unassigned) [Example 15a, 1-(6-(4-(5-chloro-6-methyl-1H-indazol-4-yl)-3-(7,8-dihydropyrido[4,3-d]pyrimidin-6(5H)-yl)-5-methyl-1H-pyrazol-1-yl)-2-azaspiro[3.3]heptan-2-yl)prop-2-en-1-one]
11 | 9 | CC[C@@]1(C)CN(C[C@@H]2COCCO2)CCN1c1nn(C2CC3(C2)CN(C(=O)/C=C/Cl)C3)c(C)c1-c1c(Cl)c(C)cc2[nH]ncc12 (single isomer, unassigned) [Example 175b]
12 | 61 | C=C(F)C(=O)N1CC2(CC(n3nc(N4CCN(C[C@@H]5COCCO5)C[C@]4(C)COC)c(-c4c(Cl)c(Cl)cc5[nH]ncc45)c3C)C2)C1 (single isomer, unassigned) [Example 184b]
13 | 2200 | C=CC(=O)N1CC2(CC(n3nc(N4CCCCC45CN(C(C)=O)C5)c(-c4c(Cl)c(C)cc5[nH]ncc45)c3C)C2)C1 (single isomer, unassigned) [Example 66b, 1-(6-(3-(2-acetyl-2,5-diazaspiro[3.5]nonan-5-yl)-4-(5-chloro-6-methyl-1H-indazol-4-yl)-5-methyl-1H-pyrazol-1-yl)-2-azaspiro[3.3]heptan-2-yl)prop-2-en-1-one]
14 | 6 | C=CC(=O)N1CC2(CC(n3nc(N4CC[C@@H](CN5CCC[C@H]5C(=O)N(C)C)CC4(C)C)c(-c4c(Cl)c(Cl)cc5[nH]ncc45)c3C)C2)C1 (single isomer, unassigned) [Example 313b]
15 | > 5000 | C=CC(=O)N1CC2(CC(n3nc(N4CCC(O)(CN5CCOCC5)CC4(C)C)c(-c4c(Cl)c(Cl)cc5[nH]ncc45)c3C)C2)C1 (single isomer, unassigned) [Example 237a, 1-(6-(4-(5,6-dichloro-1H-indazol-4-yl)-3-(4-hydroxy-2,2-dimethyl-4-(morpholinomethyl)piperidin-1-yl)-5-methyl-1H-pyrazol-1-yl)-2-azaspiro[3.3]heptan-2-yl)prop-2-en-1-one]
16 | > 5000 | C=CC(=O)N1CC2(CC(n3nc(N4CCC5C(CC(=O)N5C)C4)c(-c4c(Cl)c(C)cc5[nH]ncc45)c3C)C2)C1 (single isomer, unassigned) [Example 38a, 5-(1-(2-acryloyl-2-azaspiro[3.3]heptan-6-yl)-4-(5-chloro-6-methyl-1H-indazol-4-yl)-5-methyl-1H-pyrazol-3-yl)-1-methyloctahydro-2H-pyrrolo[3,2-c]pyridin-2-one]
17 | 64 | C=CC(=O)N1CC2(CC(n3nc(N4CCC5(CN(C)CCO5)CC4(C)C)c(-c4c(Cl)c(C)cc5[nH]ncc45)c3C)C2)C1 (single isomer, unassigned) [Example 208a, 1-(6-(4-(5-chloro-6-methyl-1H-indazol-4-yl)-5-methyl-3-(4,8,8-trimethyl-1-oxa-4,9-diazaspiro[5.5]undecan-9-yl)-1H-pyrazol-1-yl)-2-azaspiro[3.3]heptan-2-yl)prop-2-en-1-one]
18 | 28 | C=CC(=O)N1CC2(CC(n3nc(N4CCN(c5cnn(C)c5)CC4(C)C)c(-c4c(Cl)c(C)cc5[nH]ncc45)c3C)C2)C1 (single isomer, unassigned) [Example 193b, 1-(6-(4-(5-Chloro-6-methyl-1H-indazol-4-yl)-3-(2,2-dimethyl-4-(1-methyl-1H-pyrazol-4-yl)piperazin-1-yl)-5-methyl-1H-pyrazol-1-yl)-2-azaspiro[3.3]heptan-2-yl)prop-2-en-1-one]
19 | 10 | C=CC(=O)N1CC2(CC(n3nc(N4CC[C@@H](CN5CCN(C(=O)NC)CC5)CC4(C)C)c(-c4c(Cl)c(Cl)cc5[nH]ncc45)c3C)C2)C1 (single isomer, unassigned) [Example 289b]
20 | 4000 | C=CC(=O)N1CC2(CC(n3nc(N4CC[C@@H](CN5CCOCC5)CC4(C)C)c(-c4c(C)c(Cl)cc5[nH]ncc45)c3C)C2)C1 (single isomer, unassigned) [Example 233a]
21 | 4300 | C=CC(=O)N1CC2(CC(n3nc(N4CC[C@@H](CN5CCP(C)(=O)CC5)CC4(C)C)c(-c4c(Cl)c(Cl)cc5[nH]ncc45)c3C)C2)C1 (single isomer, unassigned) [Example 269a]
22 | 6 | C=CC(=O)N1CC2(CC(n3nc(N4CCN(Cc5cn(C)nn5)C[C@]4(C)CC)c(-c4c(Cl)c(C)cc5[nH]ncc45)c3C)C2)C1 (single isomer, unassigned) [Example 188b]
23 | 12 | C=CC(=O)N1CC2(CC(n3nc(N4CCC(N5CC(OC)C5)CC4(C)C)c(-c4c(Cl)c(Cl)cc5[nH]ncc45)c3C)C2)C1 (single isomer, unassigned) [Example 209b, 1-(6-(4-(5,6-dichloro-1H-indazol-4-yl)-3-(4-(3-methoxyazetidin-1-yl)-2,2-dimethylpiperidin-1-yl)-5-methyl-1H-pyrazol-1-yl)-2-azaspiro[3.3]heptan-2-yl)prop-2-en-1-one]
24 | 3100 | C=CC(=O)N1CC2(CC(n3nc(N4CCN(C5COC5)CC45CCC5)c(-c4c(Cl)c(Cl)cc5[nH]ncc45)c3C)C2)C1 (single isomer, unassigned) [Example 72a]
25 | 5 | C=CC(=O)N1CC2(CC(n3nc(N4CCN(C[C@@H]5COCCO5)C[C@]4(C)CC)c(-c4c(Cl)c(C)cc5[nH]ncc45)c3C)C2)C1 (single isomer, unassigned) [Example 173b]
26 | 3300 | C=CC(=O)N1CC2(CC(n3nc(N4CC[C@@H](CN5CCN(C6COC6)CC5)CC4(C)C)c(-c4c(Cl)ccc5[nH]ncc45)c3C)C2)C1 (single isomer, unassigned) [Example 255a]
27 | 9 | C=CC(=O)N1CC2(CC(n3nc(N4CC[C@@H](CN5CCOC6CS(=O)(=O)CC65)CC4(C)C)c(-c4c(Cl)c(Cl)cc5[nH]ncc45)c3C)C2)C1 (single isomer, unassigned) [Example 265b, 1-(6-(4-(5,6-dichloro-1H-indazol-4-yl)-3-((R)-4-(((4aR*,7aS*)-6,6-dioxidohexahydro-4H-thieno[3,4-b][1,4]oxazin-4-yl)methyl)-2,2-dimethylpiperidin-1-yl)-5-methyl-1H-pyrazol-1-yl)-2-azaspiro[3.3]heptan-2-yl)prop-2-en-1-one]

Row | Compound | IC50 [nM]
28 | C=CC(=O)N1CC2(CC(n3nc(N4C5CCC4CN(C(C)=O)C5)c(-c4c(Cl)c(C)cc5[nH]ncc45)c3C)C2)C1 (single isomer, unassigned) [Example 57b, 1-(6-(3-(3-acetyl-3,8-diazabicyclo[3.2.1]octan-8-yl)-4-(5-chloro-6-methyl-1H-indazol-4-yl)-5-methyl-1H-pyrazol-1-yl)-2-azaspiro[3.3]heptan-2-yl)prop-2-en-1-one] | 216
29 | C=CC(=O)N1CC2(CC(n3nc(N4CCC(N5C6CCC5COC6)CC4(C)C)c(-c4c(Cl)c(C)cc5[nH]ncc45)c3C)C2)C1 (single isomer, unassigned) [Example 75b] | 228
